# Values joined by “and” are separate entries in the source; they are usually repeats but may differ in a detail not shown here. Identical values can stand only once. Counter-ions that a name gives are not always drawn. Like-named read-outs stand apart in the source and are kept apart here.
# Columns and labels:
# BMP-2 [1] = assay: Real time PCR of BMP-2 gene expression in human MSC (Cells-to-Ct); assay type: cell-based; conditions: BMP-2 mRNA, hMSC, 5-10 μM, 24 hours, vs untreated
# Procedure: Early passage human mesenchymal stem cells (MSC) were thawed from one frozen cryo-vial and seeded into two T-75 tissue culture flasks and incubated at 37° C. for 48 hours in Alpha MEM with 10% FBS. After three days and one re-feeding, the cells were trypsinized and re-suspended in pre-warmed media at 5×10^4 cells/mL to provide 5,000 cells per well in a 96 well plate and incubated overnight at 37° C. in 5% CO2.
# Each well was washed in cold PBS, lysed at room temperature for five minutes, and stop reagent added to each well to stop the lysis reaction. The final lysate was kept cold at 4° C. and used immediately as the RNA template for the reverse transcription cDNA synthesis following the TAQMAN GENE EXPRESSION CELLS TO CT KIT instructions.
# The cDNA synthesis was prepared on a separate sterile 96-well PCR plate and performed on the Step One Plus Real Time PCR System instrument (Applied Biosystems) with the programming set at 37° C. for 60 minutes and an inactivation hold of 95° C. for five minutes. The final cDNA reaction was kept cold and used as the template for the TAQMAN GENE Real-Time PCR step following the recommended instructions for TAQMAN GENE EXPRESSION CELLS TO CT KIT assay. […] Template cDNA's were added separately to respective individual wells in replicate samples.
# The PCR was performed on the STEPONEPLUS Real-Time System instrument (Applied Biosystems). The amplification program consisted of 1 cycle of 95° C. with 10 minute hold (hot start) and followed by 50 cycles of 95° C. with 15-second annealing hold and 1-minute 60° C. specified acquisition hold.
# BMP2 = assay: Quantitative PCR (TaqMan, ΔΔCt) of BMP2 in human mesenchymal stem cells; assay type: cell-based; conditions: BMP2 mRNA, hMSC, 10 μM, vs untreated, 18S reference; for fold induction at 10 µM: Homo sapiens, Mesenchymal stem cells, read-out: q-PCR Fold increase
# Procedure: (§1) Human mesenchymal stem cells (LONZA, Catalog PT2501) were maintained in Mesenchymal stem cells basal media (MSCBM CAT#PT-3238). Early passage cells were plated in triplicate at 2×10^4 cells/cm^2 using six well tissue culture plates and grown in humidified 5% CO2 at 37° C. for 24 hours. Spent media was replaced by assay media of drugs to be tested in same media as above at 10 μM final concentration. Untreated cells were used as the control group. Total RNA were prepared using either TRI Reagent (Ambion, Cat. 9738), for subsequent TaqMan gene expression qPCR of BMP2. RNA concentration and integrity was assessed by absorbance 260/280 and electrophoresis in 1% Agarose with formaldehyde loading dye. For TaqMan gene expression, cDNA was synthesized from 2 μg of total RNA using the High Capacity cDNA Reverse Transcription Kit (Applied Biosystems, Cat. 4368814). The resulting cDNA were diluted 1:100 for TaqMan and amplified by real-time quantitative PCR. Gene-specific fluorescent labeled TaqMan primers for FAM-BMP2 (Applied Biosystems, Hs00154192.m1) and TaqMan reference VIC-18S ribosomal RNA (Applied Biosystems, 4310893E) were used to target gene of interest. A cocktail of universal master mix (Applied Biosystems, 4369016) were prepared individually for both set of primers which contained Taq Polymerase, dNTPs, and buffer. Template cDNA's were added separately to respective individual wells in triplicate samples. The PCR were performed on StepOne Plus Real Time System instrument (Applied Biosystems). The amplification program consisted of 1 cycle of 95° C. with 10 minute hold (hot start) followed by 50 cycles of 95° C. with 15 second annealing hold and 1 minute 60° C. specified acquisition hold. The Ct value of endogenous reference gene (i.e. 18 s) was used to control for input RNA and then used to normalize target gene (i.e. BMP2) tested from the same cDNA sample to calculate the Δ Ct, and then calibrated to an internal reference sample. Change in gene expression was determined by the expression ΔΔCt relative method.
# 18 compounds were confirmed positive by the more stringent qPCR techniques. […] Included in the tables is the target or common medical use for each compounds.
# BMP-2 [2] = assay: BMP-2 fold change of JHU library compounds, confirmed by qPCR; assay type: cell-based, human; conditions: JHU library compounds; non-treated = 1.00
# Text: To further verify the technique, a 2T3 mouse pre-osteoblast cell line derived from calvaria courtesy of Dr. Steve Harris, UTHSCSA, was utilized to visually screen the compounds of the BIOMOL library and JHU libraries, purchased from John Hopkins University including 2387 compounds (solution in wells). Specifically, Murine 2T3 were thawed from one frozen cryovial and re-seeded into two T-75 tissue culture flasks grown in Alpha MEM with 10% FBS, Glutamine, and Pen/Strip antibiotics. Cells were incubated in a humidified 37° C. under 5% CO2 for 48 hours or when cells reached 80% confluence. After reaching confluency, the 2T3 were trypsinized and resuspended in pre-warm growth media to a cell density of 5×10^4 cells/mL. Approximately 100 uL of cell suspension was seeded to a 96 well plate to give a final 5,000 cells per well. Plate was incubated overnight at 37° C. and spent media was aspirated and replace with 100 uL of growth media with 5-10 uM of presumptive drug compounds. A set of controls were untreated and treated with 10 uM of Lovastatin to be used as a visual reference morphological screening.
# as §1, with “Total RNA were prepared using either TRI Reagent (Ambion, Cat. 9738), for subsequent TaqMan gene expression qPCR of BMP2.” left out, “Gene-specific fluorescent labeled TaqMan primers for FAM-BMP2 (Applied Biosystems, Hs00154192.m1) and TaqMan reference VIC-18S ribosomal RNA (Applied Biosystems, 4310893E) were used to target gene of interest.” left out, “The Ct value of endogenous reference gene (i.e. 18 s) was used to control for input RNA and then used to normalize target gene (i.e. BMP2) tested from the same cDNA sample to calculate the Δ Ct, and then calibrated to an internal reference sample.” left out
# Included in the tables is the target or common medical use for each compounds.
# [3] = positive control compounds (Table 1)
Molecule,Fold change (BMP-2) (BMP-2 [2]),also measured
CC(=O)OC[C@H]1O[C@@H]([S-])[C@H](OC(C)=O)[C@@H](OC(C)=O)[C@@H]1OC(C)=O.CCP(CC)CC.[Au+] [Auranofin],,RT PCR Fold increase (BMP-2 [1]; BIOMOL library (Table 2)): 309.8 fold; q-PCR Fold increase (BMP2; BIOMOL library (Table 2)): 17.6 fold
"O=P([O-])([O-])OC1C(OP(=O)([O-])[O-])C(OP(=O)([O-])[O-])C(OP(=O)([O-])[O-])C(OP(=O)([O-])[O-])C1OP(=O)([O-])[O-].[Na+].[Na+].[Na+].[Na+].[Na+].[Na+].[Na+].[Na+].[Na+].[Na+].[Na+].[Na+] (stereo not drawn) [Phytic acid, dodecasodium salt hydrate]",15.00 fold,
Proflavine hemisulfate salt hydrate,177.00 fold,
C=C1CC[C@H](O)C/C1=C/C=C1\CCC[C@]2(C)[C@@H]([C@H](C)CCCC(C)(C)O)CC[C@@H]12 [Calcifediol],,RT PCR Fold increase (BMP-2 [1]; BIOMOL library (Table 2)): 6.0 fold; fold induction at 10 µM (BMP2; BIOMOL library (Table 2)): 3.4
CC[C@@]1(O)C(=O)OCc2c1cc1n(c2=O)Cc2cc3cc(O)ccc3nc2-1 [10-hydroxy-camptothecin],,RT PCR Fold increase (BMP-2 [1]; BIOMOL library (Table 2)): 30.0 fold; q-PCR Fold increase (BMP2; BIOMOL library (Table 2)): 3.9 fold
CC[C@@]1(O)C(=O)OCc2c1cc1n(c2=O)Cc2cc3ccccc3nc2-1 [Camptothecin],,RT PCR Fold increase (BMP-2 [1]; BIOMOL library (Table 2)): 29.0 fold; fold induction at 10 µM (BMP2; BIOMOL library (Table 2)): 4
CC(=O)[O-].CC(=O)[O-].[Cd+2] [Cadmium Acetate],8.00 fold,
CC(=O)O[C@H]1C(=O)[C@@]2(C)[C@H]([C@H](OC(=O)c3ccccc3)[C@]3(O)C[C@H](OC(=O)[C@H](O)[C@@H](NC(=O)c4ccccc4)c4ccccc4)C(C)=C1C3(C)C)[C@]1(OC(C)=O)CO[C@@H]1C[C@@H]2O [Taxol],,RT PCR Fold increase (BMP-2 [1]; [3]): 3.7 fold; fold induction at 10 µM (BMP2; [3]): 4
COC(=O)Nc1nc2ccc(Sc3ccccc3)cc2[nH]1 [Fenbendazole],,RT PCR Fold increase (BMP-2 [1]; BIOMOL library (Table 2)): 6.6 fold; fold induction at 10 µM (BMP2; BIOMOL library (Table 2)): 2
Brilliant Blue,111.00 fold,
O=[N+]([O-])c1ccc(O)c2ncccc12 [Nitroxoline (8-hydroxy 5-nitroquinoline)],18.00 fold,
COc1ccc(-c2cc(=O)c3c(O)cc(O[C@@H]4O[C@H](CO[C@@H]5O[C@@H](C)[C@H](O)[C@@H](O)[C@H]5O)[C@@H](O)[C@H](O)[C@H]4O)cc3o2)cc1O [Diosmin],9.00 fold,
COc1cc(NS(C)(=O)=O)ccc1Nc1c2ccccc2nc2ccccc12 [Amsacrine],85.00 fold,
Oc1ccc(CCN2CCC(Nc3nc4ccccc4n3Cc3ccc(F)cc3)CC2)cc1 [Desmethyl astemizole],75.00 fold,
C=C(NC(=O)C(=C)NC(=O)c1csc(C2=N[C@@H]3c4csc(n4)[C@H]4NC(=O)c5csc(n5)[C@H]([C@](C)(O)[C@@H](C)O)NC(=O)[C@H]5CSC(=N5)/C(=C/C)NC(=O)[C@H]([C@@H](C)O)NC(=O)c5csc(n5)[C@]3(CC2)NC(=O)[C@H](C)NC(=O)C(=C)NC(=O)[C@H](C)NC(=O)[C@H]([C@@H](C)CC)N[C@@H]2C=Cc3c([C@H](C)O)cc(nc3[C@H]2O)C(=O)O[C@@H]4C)n1)C(N)=O [Thiostrepton],5.00 fold,
CC(C)(C)CC(C)(C)c1ccc(O)c(Cc2ccc(Cl)cc2Cl)c1 [Clofoctol],11.00 fold,
C=C(C)[C@H]1Cc2c(ccc3c2O[C@@H]2COc4cc(OC)c(OC)cc4[C@@H]2C3=O)O1 [ROTENONE],61.00 fold,
C[C@@H]1C[C@@H]([C@H](O)CC2CC(=O)NC(=O)C2)C(=O)[C@@H](C)C1 [Cycloheximide],34.00 fold,
CC(=O)OCC(=O)[C@@]1(O)CC[C@H]2[C@@H]3C[C@H](C)C4=CC(=O)C=C[C@]4(C)[C@H]3[C@@H](O)C[C@@]21C [6alpha-METHYLPREDNISOLONE ACETATE],35.00 fold,
CC[C@@]1(O)C(=O)OCc2c1cc1n(c2=O)Cc2cc3c(CN(C)C)c(O)ccc3nc2-1 [Topotecan],365.00 fold,
COc1ccc(C[C@H]2NC[C@H](O)[C@H]2OC(C)=O)cc1 [Anisomycin],670.00 fold and 387.00 fold,
Nc1c2ccccc2nc2ccccc12 [Aminacrine (9-Aminoacridine)],5762.00 fold,
CN(C)C(=S)SSC(=S)N(C)C [THIRAM],36.00 fold,
CC[C@@H](C(=O)[C@@H](C)[C@@H](O)[C@H](C)CCc1ccc(C)c(O)c1C(=O)[O-])[C@H]1O[C@](CC)([C@H]2CC[C@](O)(CC)[C@H](C)O2)C[C@@H]1C.[Na+] [Laslocid Sodium],4.00 fold,
C[CH2][Hg][S]c1ccccc1C(=O)[O-].[Na+] [THIMEROSAL],23.00 fold,
CC[C@H]1CN2CCc3cc(OC)c(OC)cc3[C@@H]2C[C@@H]1C[C@H]1NCCc2cc(OC)c(OC)cc21 [Emetine],220.00 fold,
CCC1=C[C@@H]2CN(C1)Cc1c([nH]c3ccccc13)[C@@](C(=O)OC)(c1cc3c(cc1OC)N(C)[C@H]1[C@@](O)(C(=O)OC)[C@H](OC(C)=O)[C@]4(CC)C=CCN5CC[C@]31[C@@H]54)C2 [Vinorelbine tartrate],803.00 fold,
Acriflavine hydrochloride,1491.00 fold,
Cc1cc(/C=C/c2ccc3cc(N(C)C)ccc3[n+]2C)c(C)n1-c1ccccc1 [Pyrvinium pamoate],398.00 fold,
Verteporfin,6.00 fold,

# — patent US9216181B2 (Southwest Research Institute, priority 2011, dated 2015)
